Assays:
drT2R3a [1] = biological target: T1, drT2R3a (Danio rerio, UniProt Q2AB30); format: cell-based
T1 sequence (Q2AB30 1-313): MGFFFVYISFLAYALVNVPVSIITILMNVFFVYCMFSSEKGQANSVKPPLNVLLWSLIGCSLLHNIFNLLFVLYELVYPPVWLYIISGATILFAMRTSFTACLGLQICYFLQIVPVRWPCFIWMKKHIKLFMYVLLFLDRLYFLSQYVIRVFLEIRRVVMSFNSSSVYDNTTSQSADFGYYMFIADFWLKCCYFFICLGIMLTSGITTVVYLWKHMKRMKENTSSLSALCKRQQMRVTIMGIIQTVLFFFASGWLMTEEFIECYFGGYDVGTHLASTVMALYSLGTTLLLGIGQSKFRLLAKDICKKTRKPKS

drT2R3a [2] = biological target: T1, drT2R3a; format: cell-based; remark: listed apart in the source

| Compound | IC50 (drT2R3a [1]) | EC50 (drT2R3a [2]) |
| --- | --- | --- |
| O=C1NS(=O)(=O)c2ccccc21 [saccharin] | 920 ± 280 µM | – |
| CC[N+](CC)(CC(=O)Nc1c(C)cccc1C)Cc1ccccc1 [DB, Denatonium benzoate] | – | 230 ± 20 µM |

— PMC7851594 (Genome Biology and Evolution, 2020)
